In brackets after ≈: the same amount, converted by molar mass.
Columns and labels:
[1] = molecular target: T1, recombinant full-length human GSK3β (Homo sapiens, UniProt P49841); assay: Luciferase-coupled cell-free GSK3β kinase assay; format: biochemical
T1 construct: recombinant full-length human GSK3β (Upstate); purchased Upstate
Description: For compounds in Tables 1 and 2, IC50 (μM) for GSK3β enzyme in cell free assay is provided as follows:
Luciferase-Coupled Protein Kinase Assays
All coupled-luciferase assays are performed by using a brief incubation with firefly luciferase (Promega) after completion of the kinase assay. KinaseGlo Plus is used for reading kinase reactions with ATP>10 μM, KinaseGlo for ATP <10 μM. The assay volume in a 384-well plate for the kinase reaction is 30 microliters.
10-25 ng of recombinant full-length human GSK3β (Upstate) is incubated in the presence or absence of compound at varying concentrations for 1 hour at 30 degrees Celsius in 20 mM MOPS, pH 7.0, 10 mM magnesium acetate, 0.2 mM EDTA, 2 mM EGTA, 30 mM magnesium chloride, 62.5 μM phospho-glycogen synthase peptide-2, 5 μM ATP, 10 mM β-glycerol phosphate, 1 mM sodium orthovanadate and 1 mM dithiothreitol. Proceed to KinaseGlo luciferase reaction (see below).
Following the completion of the kinase reaction an equal volume of KinaseGlo or KinaseGlo Plus luciferase reagent (Promega) is added and the luminescence read using a luminescence plate reader within 5-10 minutes. Compound activity is expressed as % inhibition relative to maximal inhibition observed at the maximal dose and IC50 values then calculated using curve fitting software (GraphPad Prizm).

E. coli, ATCC8739 = assay: Antibacterial activity (MIC), E. coli; format: cell-based; conditions: Escherichia coli, ATCC8739, Table 2; E. coli ATCC8739; read-out: Antimicrobial MIC [μM] E. Coli
Text: (§1) As used herein, a minimum inhibitory concentration (MIC) for bacterial growth assay is the lowest level of a compound needed to cause an inhibition to bacterial growth in culture medium. In certain embodiments, the antibacterial activity of compounds herein, measured as MIC.
(§2) In certain embodiments, GSK3 inhibitors provided herein are substantially free of antibacterial activity or having very low antibacterial activity. The antibacterial activity can be measured by methods known in the art by estimating a minimum inhibitory concentration (MIC) for test compounds. A MIC is the lowest level of a compound needed to cause an inhibition to bacterial growth in a culture medium. […] (Clinical and Laboratory Standards Institute. Methods for Dilution Antimicrobial Susceptibility Tests for Bacteria That Grow Aerobically; Approved Standard-Sixth Edition: CLSI document […]. CLSI, Wayne, Pa. (2003))
(§3) Antibacterial activity for E. coli, ATCC8739 andS. aureus Smith expressed as MIC (μM) is provided as follows: […]

S. aureus Smith = assay: Antibacterial activity (MIC), S. aureus; format: cell-based; conditions: Staphylococcus aureus, Table 2; S. aureus Smith; read-out: Antimicrobial MIC [μM] S. aureus
Text: as §1, §2, §3

T1 sequence (P49841 whole entry): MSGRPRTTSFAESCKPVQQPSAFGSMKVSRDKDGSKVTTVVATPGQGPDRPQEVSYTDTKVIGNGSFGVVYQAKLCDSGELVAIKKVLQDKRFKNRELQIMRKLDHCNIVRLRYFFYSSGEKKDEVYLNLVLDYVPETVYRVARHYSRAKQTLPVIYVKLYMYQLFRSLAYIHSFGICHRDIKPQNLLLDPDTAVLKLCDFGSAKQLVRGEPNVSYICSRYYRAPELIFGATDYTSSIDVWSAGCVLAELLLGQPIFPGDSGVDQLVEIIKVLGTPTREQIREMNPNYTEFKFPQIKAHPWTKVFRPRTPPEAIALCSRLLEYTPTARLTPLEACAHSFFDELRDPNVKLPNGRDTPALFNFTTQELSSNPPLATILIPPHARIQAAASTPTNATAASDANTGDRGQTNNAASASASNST

Structure (SMILES) | IC50 ([1]; Table 2) | MIC (E. coli, ATCC8739) | MIC (S. aureus Smith) | IC50 ([1]; Table 1)
C[C@H]1COc2c(NCCCC3CCCCC3)c(F)c(N)c3c(=O)c(C(=O)O)cn1c23 [Example 103] | < 100 nM | 10 to 50 µM (≈ 4.17 to 20.9 µg/mL) | 10 to 50 µM (≈ 4.17 to 20.9 µg/mL) | 
Nc1c(F)c(NCCNc2ccccn2)c2c3c1c(=O)c(C(=O)O)cn3[C@@H](Cc1ccccc1)CO2 [Example 120] | 100 to 500 nM | 10 to 50 µM (≈ 4.9 to 24.5 µg/mL) | 10 to 50 µM (≈ 4.9 to 24.5 µg/mL) | 
COc1c(NCCNc2ccccn2)c(Cl)c(N)c2c(=O)c(C(=O)O)cn(C3CC3)c12 [Example 121] | < 100 nM | 10 to 50 µM (≈ 4.44 to 22.2 µg/mL) | 0.5 to 10 µM (≈ 0.222 to 4.44 µg/mL) | 
CCOC(=O)CCNc1c(F)c(N)c2c(=O)c(C(=O)O)cn(C3CC3)c2c1OC [Example 122] | 500 to 1000 nM | 10 to 50 µM (≈ 4.07 to 20.4 µg/mL) | 0.5 to 10 µM (≈ 0.204 to 4.07 µg/mL) | 
COc1c(NCCNc2ccccn2)c(F)c(N)c2c(=O)c(C(=O)O)c(C)n(C3CC3)c12 [Example 123] | < 100 nM | > 50 µM | > 50 µM | 
Nc1c(F)c(NCCNc2ccccn2)c2c3c1c(=O)c(C(=O)O)cn3[C@@H](c1ccccc1)CO2 [Example 124] | 100 to 500 nM | 10 to 50 µM (≈ 4.75 to 23.8 µg/mL) | 10 to 50 µM (≈ 4.75 to 23.8 µg/mL) | 
CCOC(=O)CCNc1c(F)c(N)c2c(=O)ccn(C3CC3)c2c1OC [Example 125] | 100 to 500 nM | > 50 µM | > 50 µM | 
Nc1c(F)c(NC(=O)CCc2ccccc2)c(F)c2c1c(=O)c(C(=O)O)cn2C1CC1 [Example 126] | > 1000 nM | 0.5 to 10 µM (≈ 0.214 to 4.27 µg/mL) | 0.5 to 10 µM (≈ 0.214 to 4.27 µg/mL) | 
Cc1c(C(=O)O)c(=O)c2c(N)c(F)c(NCCNc3ccccn3)c(OC(C)C)c2n1C1CC1 [Example 127] | 100 to 500 nM | 10 to 50 µM (≈ 4.7 to 23.5 µg/mL) | 0.5 to 10 µM (≈ 0.235 to 4.7 µg/mL) | 
CSc1c(F)c(NCCNc2ccccn2)c(F)c2c1c(=O)c(C(=O)O)cn2C1CC1 [Example 128] |  | 0.5 to 10 µM (≈ 0.223 to 4.46 µg/mL) | 0.5 to 10 µM (≈ 0.223 to 4.46 µg/mL) | 
COc1c(NCCNc2ccccn2)c(F)c(N)c2c(=O)c(C(=O)O)cn(C)c12 [Example 129] | 100 to 500 nM | 10 to 50 µM (≈ 4.01 to 20.1 µg/mL) | 10 to 50 µM (≈ 4.01 to 20.1 µg/mL) | 
COc1c(NCCNc2ccccn2)c(F)c(N)c2c(=O)c(C(=O)O)cn(Cc3ccccc3)c12 [Example 130] | > 1000 nM | 0.5 to 10 µM (≈ 0.239 to 4.77 µg/mL) | 0.5 to 10 µM (≈ 0.239 to 4.77 µg/mL) | 
O=C(O)c1cn(C2CC2)c2c(F)c(NCCNc3ccccn3)c(F)c(S)c2c1=O [Example 131] | < 100 nM | 0.5 to 10 µM (≈ 0.216 to 4.32 µg/mL) | 0.5 to 10 µM (≈ 0.216 to 4.32 µg/mL) | 
COc1c(OCCNc2ccccn2)c(F)c(N)c2c(=O)c(C(=O)O)cn(C3CC3)c12 [Example 132] | > 1000 nM | 0.5 to 10 µM (≈ 0.214 to 4.28 µg/mL) | < 0.5 µM | 
Nc1c(F)c(NCCNc2ccccn2)cc2c1c(=O)c(C(=O)O)cn2C1CC1 [Example 133] | < 100 nM | 0.5 to 10 µM (≈ 0.199 to 3.97 µg/mL) | < 0.5 µM | 
Nc1c(F)c(NCCNc2ccccn2)c2c3c1c(=O)c(C(=O)O)cn3[C@@H](CF)CO2 [Example 134] | < 100 nM | < 0.5 µM | < 0.5 µM | 
Nc1c(F)c(NCCNc2ccccn2)cc2c1c(=O)c(C(=O)O)cn2C1CCOCC1 [Example 135] | < 100 nM | 10 to 50 µM (≈ 4.41 to 22.1 µg/mL) | 10 to 50 µM (≈ 4.41 to 22.1 µg/mL) | 
Nc1c(F)c(NCCNc2ccccn2)c(F)c2c1c(=O)cc(C(=O)O)n2C1CC1 [Example 136] | > 1000 nM | > 50 µM | > 50 µM | 
COc1c(NCCNc2ccc(C(=O)O)cn2)c(F)c(N)c2c(=O)ccn(C3CC3)c12 [Example 137] | < 100 nM | > 50 µM | > 50 µM | 
COc1c(NCCNc2ccc(C(=O)O)cn2)c(F)c(N)c2c(=O)c(C(=O)O)cn(C3CC3)c12 [Example 138] | < 100 nM | > 50 µM | > 50 µM | 
NC1=C2C(=O)C(C(=O)O)=CN3CCCCOC(C(NCCNc4ccccn4)=C1F)C23 (stereo not drawn) [Example 140] | 500 to 1000 nM | > 50 µM | > 50 µM | 
COc1c(NCCNc2ccccn2)c(F)c(NC(=O)C(F)(F)F)c2c(=O)c(C#N)cn(C3CC3)c12 [Example 141] | < 100 nM | 0.5 to 10 µM (≈ 0.252 to 5.04 µg/mL) | 0.5 to 10 µM (≈ 0.252 to 5.04 µg/mL) | 
C[C@H]1COc2c(NCCCc3ccccc3)c(F)c(N)c3c(=O)c(C(=O)O)cn1c23 [compound 29] | < 100 nM | 10 to 50 µM (≈ 4.11 to 20.6 µg/mL) |  | 

Structure (SMILES) | IC50 ([1]; Table 2) | MIC (E. coli, ATCC8739) | MIC (S. aureus Smith) | IC50 ([1]; Table 1)
CC1COc2c(NCCCn3cnc4ccccc43)c(F)c(N)c3c(=O)ccn1c23 (stereo not drawn) [compound 47] | 100 to 500 nM |  |  | 
Nc1c(F)c(NCCCn2ccnc2)c2c3c1c(=O)c(C(=O)O)cn3CCCO2 [compound 53] | 100 to 500 nM |  |  | 
COc1c(NCCNc2cccc3ccccc23)c(F)c(N)c2c(=O)ccn(C3CC3)c12 [compound 66] | < 100 nM |  |  | 
C[C@H]1COc2c(NCCCN3CCc4ccccc43)c(F)c(N)c3c(=O)c(C(=O)O)cn1c23 [compound 68] | 100 to 500 nM |  |  | 
C[C@H]1COc2c(NCCN3CCc4ccccc43)c(F)c(N)c3c(=O)c(C(=O)O)cn1c23 [compound 69] | < 100 nM |  |  | 
CC(CCc1ccc(Cl)cc1)Nc1c(F)c(N)c2c(=O)c(C(=O)O)cn3c2c1OC[C@@H]3C (stereo partly drawn) [compound 71] | < 100 nM |  |  | 
COc1ccc(CCCNc2c(F)c(N)c3c(=O)c(C(=O)O)cn4c3c2OC[C@@H]4C)cc1 [compound 73] | < 100 nM |  |  | 
CC(COc1ccc(Cl)cc1)Nc1c(F)c(N)c2c(=O)c(C(=O)O)cn3c2c1OC[C@@H]3C (stereo partly drawn) [compound 74] | 500 to 1000 nM |  |  | 
C[C@H]1COc2c(NCCCc3ccccc3Cl)c(F)c(N)c3c(=O)c(C(=O)O)cn1c23 [compound 75] | < 100 nM |  |  | 
Cc1ccc(OCCNc2c(F)c(N)c3c(=O)c(C(=O)O)cn4c3c2OC[C@@H]4C)cc1 [compound 77] | 100 to 500 nM |  |  | 
CC(C)c1ccc(OCCNc2c(F)c(N)c3c(=O)c(C(=O)O)cn4c3c2OC[C@@H]4C)cc1 [compound 78] | 100 to 500 nM |  |  | 
COc1ccc(C(CCNc2c(F)c(N)c3c(=O)c(C(=O)O)cn4c3c2OC[C@@H]4C)c2ccc(F)cc2)cc1 (stereo partly drawn) [compound 81] | < 100 nM |  |  | 
C[C@H]1COc2c(NCCCc3nc4ccccc4[nH]3)c(F)c(N)c3c(=O)c(C(=O)O)cn1c23 [compound 82] | < 100 nM |  |  | 
C[C@H]1COc2c(NCCOc3ccc(Cl)cc3)c(F)c(N)c3c(=O)c(C(=O)O)cn1c23 [compound 83] | < 100 nM |  |  | 
Cc1cc(OCCNc2c(F)c(N)c3c(=O)c(C(=O)O)cn4c3c2OC[C@@H]4C)ccc1Cl [compound 84] | < 100 nM |  |  | 
Cc1ccc(C(C)C)c(OCCNc2c(F)c(N)c3c(=O)c(C(=O)O)cn4c3c2OC[C@@H]4C)c1 [compound 85] | 100 to 500 nM |  |  | 
CNNC(=O)c1cn(C2CC2)c2c(F)c(NCCCc3ccccc3)c(F)c(N)c2c1=O [compound 86] |  |  |  | > 1000 nM
COc1ccc(OCC(C)Nc2c(F)c(N)c3c(=O)c(C(=O)O)cn4c3c2OC[C@@H]4C)cc1 (stereo partly drawn) [compound 86] | 500 to 1000 nM |  |  | 
CC(CCc1ccccc1Cl)Nc1c(F)c(N)c2c(=O)c(C(=O)O)cn3c2c1OC[C@@H]3C (stereo partly drawn) [compound 88] | 100 to 500 nM |  |  | 
CC1COc2c(NCCCOc3ccccc3)c(F)c(N)c3c(=O)c(C(=O)O)cn1c23 (stereo not drawn) [compound 88] |  |  |  | 100 to 500 nM
CC1COc2c(NCCCn3ccnc3)c(F)c(N)c3c(=O)c(C(=O)O)cn1c23 (stereo not drawn) [compound 89] |  |  |  | < 100 nM
COc1cccc(CCCNc2c(F)c(N)c3c(=O)c(C(=O)O)cn4c3c2OC[C@@H]4C)c1 [compound 89] | < 100 nM |  |  | 
CC1Cc2ccccc2N1C(=O)CCCNc1c(F)c(N)c2c(=O)c(C(=O)O)cn3c2c1OC[C@@H]3C (stereo partly drawn) [compound 90] | 500 to 1000 nM |  |  | 

Source: US8063221B2, “Aminoquinolones as GSK-3 inhibitors” (Kyorin Pharmaceutical Co., Ltd., priority 2006, dated 2011)
